In patent US20250382346A1, “NEURONAL PROMOTERS AND USES THEREOF” (priority 2023, published 2025):

Target: T1, hM3Dq (Homo sapiens, UniProt P20309, A239G/Y149C)
T1 construct: expressed in transfected cells; host or cells: neurons of C57BL/6J mice or of macaques, transduced in vivo by nigral AAV8R12-G88P3-HA-hM3Dq
Test: Striatal slice whole-cell recordings of retrogradely labeled D1-MSNs, hM3Dq
Assay type: cell-based, mice
Conditions: AAV8R12-G88P3-HA-hM3Dq-2A-EYFP; CNO 10 μM; basal firing rate and resting membrane potential unaffected
From the text: Mice from different groups were anesthetized with […] isoflurane, and then decapitated. The brain was quickly extracted and placed in ice-cold N-methyl-D-glucamine (NMDG) cutting solution containing (in mM): 92 NMDG, 2.5 KCl, 25 NaHCO3, 1.25 NaH2PO4, 4.5 D-Glucose, 20 HEPES, 5 L-ascorbic acid, 3 Na-pyruvate, 2 Thiourea, 10 MgSO4, 0.5 CaCl2). The pH was adjusted to 7.2±0.1 using HCl and the osmolarity was adjusted to 305±5 mosmol/L using NMDG. The solution was bubbled with 95% O2/5% CO2 prior to use. Coronal striatum slices were cut in 250-[…]m thickness with a vibratome slicer (Leica, VT1200 S), and then incubated in artificial cerebrospinal fluid (aCSF) saturated with 95% O2/5% CO2 for at least 45 min at 37° C. before recording. The aCSF contains (in mM) 125 NaCl, 1.25 KCl, 25 NaHCO3, 1.25 KH2PO4, 25 D-Glucose, 2 CaCl2) and 1 MgCl2, supplemented with 2 mM Na-pyruvate, 3 mM Myo-inositol and 0.4 mM L-ascorbic acid.
The acute striatum slice was transferred to the recording chamber with a constant perfusion of oxygenized aCSF at the rate of 3 ml/min. Neurons were visualized using an upright microscope (Olympus, BX-51) with a 40× water immersion objective at room temperature (˜25° C.). […] Neurons were quickly visualized under fluorescence microscope and then patch clamp were achieved under infrared light illumination and CCD camera. […]

T1 sequence (P20309 whole entry Y149C/A239G): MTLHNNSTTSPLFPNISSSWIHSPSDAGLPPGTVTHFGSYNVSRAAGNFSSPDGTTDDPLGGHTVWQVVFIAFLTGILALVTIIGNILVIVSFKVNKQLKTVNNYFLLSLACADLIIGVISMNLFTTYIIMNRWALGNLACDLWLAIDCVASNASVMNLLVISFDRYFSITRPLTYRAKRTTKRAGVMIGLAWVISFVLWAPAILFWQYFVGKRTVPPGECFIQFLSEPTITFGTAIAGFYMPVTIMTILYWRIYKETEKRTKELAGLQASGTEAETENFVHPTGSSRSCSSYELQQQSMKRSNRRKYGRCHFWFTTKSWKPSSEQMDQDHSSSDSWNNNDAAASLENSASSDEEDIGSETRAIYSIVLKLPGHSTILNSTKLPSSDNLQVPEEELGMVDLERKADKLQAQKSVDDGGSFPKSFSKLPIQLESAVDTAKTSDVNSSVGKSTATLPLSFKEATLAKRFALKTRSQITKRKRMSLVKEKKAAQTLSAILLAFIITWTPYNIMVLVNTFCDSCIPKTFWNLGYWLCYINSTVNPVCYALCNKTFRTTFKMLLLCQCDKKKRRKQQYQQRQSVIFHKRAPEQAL

Compound: C[N+]1([O-])CCN(C2=Nc3cc(Cl)ccc3Nc3ccccc32)CC1 [CNO, Clozapine-N-oxide]
- excitability of transduced MSNs upon CNO: augmentation of excitability
